Source: patent US20200188466A1, “COMPOSITIONS OF SCHISANDRA EXTRACTS AND METHODS THEREOF” (Reyoung Corporation, priority 2017, published 2020)
Like-named read-outs stand apart in the source and are kept apart here.

Test: Plasma kinetic study of colchicine with and without Schisandrin A
Format: in vivo
Details: male, Sprague Dawley, rat, po, 3 mg/kg; for AUC(0-t): read-out: AUC0→t of colchicine; for AUC(0-inf): read-out: AUC0→∞ of colchicine; for MRT last: read-out: MRT0→t of colchicine; for MRT inf: read-out: MRT0→∞ of colchicine; for half-life: read-out: T1/2 of colchicine (converted)
Method: 42 Male Sprague Dawley rats (weight, 170-210 g) were maintained on a 12-h light/dark cycle with free access to water and lab chow for 10-14 h prior to the experiment. Rats were randomly divided into 7 groups (n=6 each) and groups 2-7 received 0 mg/kg, 6.3 mg/kg, and 12.6 mg/kg, 25.2 mg/kg, 50.4 mg/kg and 63.0 mg/kg of Schisandrin A in 1% CMC-Na (300-800 cps) via oral administration, respectively. After 5 minutes, all the groups received 3.0 mg/kg of colchicine in a solution of 2% DMSO-98% sterile water via oral administration.
After colchicine treatment, blood samples were collected from individual rat at 5 min, 15 min, 0.5 h, 1 h, 2 h, 4 h, 6 h, 8 h, 10 h, 24 h respectively. Plasma was separated by centrifugation at 8000 rpm for 6 minutes at 4° C. and kept at −80° C. until analysis. Plasma homogenate was injected into LC-MS/MS for analysis. Pharmacokinetic parameters of colchicine after a single oral dose of colchicine (3.0 mg/kg) in rats with and without different dose of Schisandrin A, including area under the concentration-time curve (AUC), mean residence time (MRT) and terminal elimination half-life (T1/2), Cmax, and Tmax are shown in Table 5.

[1] = Group1, rats, colchicine 3.0 mg/kg oral, no Schisandrin A dose stated
[2] = Group2, rats, Schisandrin A 0 mg/kg oral 5 min before colchicine 3.0 mg/kg oral
[3] = Group3, rats, Schisandrin A 6.3 mg/kg oral 5 min before colchicine 3.0 mg/kg oral
[4] = Group4, rats, Schisandrin A 12.6 mg/kg oral 5 min before colchicine 3.0 mg/kg oral
[5] = Group5, rats, Schisandrin A 25.2 mg/kg oral 5 min before colchicine 3.0 mg/kg oral
[6] = Group6, rats, Schisandrin A 50.4 mg/kg oral 5 min before colchicine 3.0 mg/kg oral
[7] = Group7, rats, Schisandrin A 63.0 mg/kg oral 5 min before colchicine 3.0 mg/kg oral

In the case of `COc1cc2c(c(OC)c1OC)-c1ccc(OC)c(=O)cc1[C@@H](NC(C)=O)CC2` [colchicine], the Cmax [1] is reported as 13.4 ± 4.38 ng/mL, the Tmax [1] is reported as 10.2 ± 5.4 min and the AUC(0-t) [1] is reported as 48.9 ± 14.9 ng·h/mL. The AUC(0-inf) [1] was 57.5 ± 16.1 ng·h/mL, the MRT last [1] was 4.54 ± 1.33 h and the MRT inf [1] was 6.99 ± 1.99 h. For the same compound, the half-life [1] was 312 ± 139 min, the Cmax [2] was 10.2 ± 2.63 ng/mL and the Tmax [2] was 13.2 ± 4.2 min. The AUC(0-t) [2] was 32.9 ± 20.9 ng·h/mL, the AUC(0-inf) [2] was 40.6 ± 22.2 ng·h/mL and the MRT last [2] was 3.89 ± 1.74 h. For the same compound, the MRT inf [2] was 6.86 ± 2.77 h, the half-life [2] was 280 ± 122 min and the Cmax [3] was 24.4 ± 6.12 ng/mL. It also gave a Tmax [3] of 11.4 ± 5.4 min, an AUC(0-t) [3] of 74.4 ± 27 ng·h/mL and an AUC(0-inf) [3] of 84.5 ± 30.5 ng·h/mL. For the same compound, the MRT last [3] was 5.04 ± 1.86 h, the MRT inf [3] was 7.67 ± 3.34 h and the half-life [3] was 367 ± 172 min. The Cmax [4] was 25.7 ± 9.67 ng/mL, the Tmax [4] was 11.4 ± 5.4 min and the AUC(0-t) [4] was 71 ± 33.3 ng·h/mL. It also gave an AUC(0-inf) [4] of 79.7 ± 34.9 ng·h/mL, an MRT last [4] of 3.95 ± 1.2 h and an MRT inf [4] of 6.54 ± 3.18 h. For the same compound, the half-life [4] was 394 ± 282 min, the Cmax [5] was 29.3 ± 11.9 ng/mL and the Tmax [5] was 6.6 ± 4.2 min. For the same compound, the AUC(0-t) [5] was 75.5 ± 27.6 ng·h/mL, the AUC(0-inf) [5] was 86.8 ± 36.2 ng·h/mL and the MRT last [5] was 4.04 ± 1.44 h. The MRT inf [5] was 7.29 ± 4.72 h, the half-life [5] was 452 ± 389 min and the Cmax [6] was 48.2 ± 12.4 ng/mL. The Tmax [6] was 18.6 ± 9.6 min, the AUC(0-t) [6] was 151 ± 41.4 ng·h/mL and the AUC(0-inf) [6] was 186 ± 70.5 ng·h/mL. It also gave an MRT last [6] of 5.1 ± 0.77 h, an MRT inf [6] of 11.7 ± 6.87 h and a half-life [6] of 783 ± 377 min. For the same compound, the Cmax [7] was 33.8 ± 14 ng/mL, the Tmax [7] was 15.6 ± 7.8 min and the AUC(0-t) [7] was 84.8 ± 39.3 ng·h/mL. The AUC(0-inf) [7] was 98.7 ± 41.9 ng·h/mL, the MRT last [7] was 4.09 ± 1.76 h and the MRT inf [7] was 7.52 ± 3.62 h. The half-life [7] was 455 ± 219 min.
